Measured values reported in patent publication US20200163342A1, “MIXTURES COMPRISING A BIOPESTICIDE AND A NITRIFICATION INHIBITOR” (BASF SE, priority 2017, published 2020).
Bridge positions count the residues as written; N and C are the ends. Square brackets hold non-standard residues; d marks the D form. Peptide text beside a SMILES is read from it. * marks the point of attachment. ξ: configuration not given here. Pentadecanoyl(3ξ-OH,15-Gua) = N=C(N)NCCCCCCCCCCCCC(O)CC(=O)*; d(aThr) = C[C@@H](O)[C@@H](N)C(=O)O; Thr(3ξ) = CC(O)[C@H](N)C(=O)O; ξY = NC(Cc1ccc(O)cc1)C(=O)O

Columns and labels:
[1] = test system: Fusarium moniliforme, F. oxysporum, F. roseum, Giberella fujkuroi, Helminthosporium sesamum and Penicillium expansum; conditions: J. Antibiotics 40(11), 1506-1514, 1987; cited from earlier work
cultured parsley cells = conditions: WO2006/016558; EP1 788 074 A1; cited from earlier work
[2] = test system: clinically relevant fungi and gram-positive bacteria such a Staphylococcus aureus; conditions: variety of clinically relevant fungi and gram-positive bacteria; ChemMedChem 7, 871-882, 2012; cited from earlier work
[3] = test system: Fusarium oxysporum, Aspergillus niger, Aspergillus oryzae, and Penicillum thomii; conditions: J. Antibiotics 49(2), 129-135, 1996; 50(3), 220-228, 1997; cited from earlier work
Fusarium oxysporum = conditions: WO2006/016558; EP1 788 074 A1; cited from earlier work
[4] = test system: grape vine (Vitis vinifer ssp. 'Sativa'); assay: Greenhouse shoot elongation, grape vine; format: in vivo; conditions: grape vine main shoot elongation, 17 days after start; DMPSA 1% of NH4-N, VitoVin 12481 g/ha
Protocol: (§1) Plants were generally grown under standard green house conditions (20° C. and 60% humidity) using standard greenhouse soil (mixture of peat, loam and sand). Therefore, 0.4 g of ryegrass seeds (Lolium perennes ‘Chagall’), 1 soybean seed (Glycine max ‘Sultana’) or 1 grape vine live stack (Vitis vinifer ssp. ‘Sativa’) were grown per pot (8.4 cm for ryegrass, soybean; 13 cm for grape vine) in a completely randomized set-up. Following a growth period of ten days (ryegrass), 14 days (soybean) or approx. 21 days, until the main shoot reached a length of 20 cm (grape vine), plants were designated for experimental usage.
For experiments using grape vine, elongation of the main shoot was measured metrically 17 days after experimental start.
In Table N2, the weight ratio between DMPSA and VitoVin is 1:5.6.

[5] = test system: soybean (Glycine max 'Sultana'); assay: Greenhouse detection of plant biomass (fresh weight), soybean; format: in vivo; conditions: 17 days after start, with AS liquid, DMPSA 1% of NH4-N where present
Protocol: as §1
Detection of ryegrass and soybean biomass (fresh weight) was determined gravitometricallly. Therefore, plants were cut using a hand held lawn cutter (ryegrass) or garden shears (soybean) 1 cm above the soil. Given ryegrass data represent the mean value of respective replicates summed up for 3 cuttings. For experiments using ryegrass, evaluations were conducted 5, 12 and 17 days after start of the experiment. For experiments using soybean, biomass evaluation was conducted 17 days after experimental start.
(§2) In Table N1, the weight ratio between DMPSA and Histick Super is 3.65:1, the weight ratio between DMPSA and Hicoat is 10.43:1.

N2O emissions from soils = assay: Greenhouse detection of nitrous oxide losses (N2O emission), soybean pots; format: in vivo, Glycine max 'Sultana'; conditions: DMPSA 1% of NH4-N where present
Protocol: as §1
On application day (DATO), each pot (with/without plants) was set onto a plant saucer designed with an inner compartment for the pot and an outer ring that is filled with water. At time 0, water holding capacity of the soil was set to 60-70% prior to application with/without fertilizer and active ingredient. Subsequently, a gas sampling chamber was placed over the plant saucer such that the rim fit into the ring filled with water to create a gas-tight chamber and 25 cc air from the chamber were drawn into a syringe and immediately emptied in to a Vacutainer (Labco, 12 ml volume). This equals the Time 0 measurement for each pot. The same procedure was performed with all pots in the experiment. After two hour incubation time, again 25 cc air samples were taken from the gas chambers and emptied into Vacutainers as described above. Plants were then returned to their positions in the climate chamber. The procedure was repeated at precisely the same time of day for up to 19 days.
Samples were analyzed in a Shimadzu 2014 GC equipped with an ECD system.
as §2

**Q.** Which “antifungal activity against various plant pathogenic fungi” value (“antifungal activity” below) [1] does the source give for fusaricidin LI-F05 here?
**A.** certain antifungal activity

**Q.** With fusaricidin LI-F07 as the compound, how does the “antifungal activity” value [1] read?
**A.** certain antifungal activity

**Q.** For fusaricidin LI-F08, which “antifungal activity” value [1] is on record?
**A.** certain antifungal activity

**Q.** Which “induction of resistance reactions in cultured parsley cells” value (cultured parsley cells) does the source give for `CC(C)[C@@H]1NC(=O)[C@@H](C(C)C)NC(=O)[C@@H](NC(=O)CC(O)CCCCCCCCCCCCN=C(N)N)[C@@H](C)OC(=O)[C@@H](C)NC(=O)[C@@H](CC(N)=O)NC(=O)[C@@H]([C@@H](C)O)NC1=O` (stereo partly drawn) [fusaricidin A] ({Pentadecanoyl(3ξ-OH,15-Gua)}-T[dV]V[d(aThr)][dN][dA]; ester 1-C) here?
**A.** induce resistance reactions

**Q.** What about the MIC value range [2] of the same compound?
**A.** 0.78 to 3.12 µg/mL

**Q.** What about the “inhibition of plant pathogenic fungi” value [3] of the same compound?
**A.** inhibit plant pathogenic fungi

**Q.** What about the “inhibition of growth of Fusarium oxysporum” value (Fusarium oxysporum) of the same compound?
**A.** inhibit growth

**Q.** Which “induction of resistance reactions in cultured parsley cells” value (cultured parsley cells) does the source give for `CC(C)[C@@H]1NC(=O)[C@@H](C(C)C)NC(=O)[C@@H](NC(=O)CC(O)CCCCCCCCCCCCN=C(N)N)C(C)OC(=O)[C@@H](C)NC(=O)[C@@H](CCC(N)=O)NC(=O)[C@@H]([C@H](C)O)NC1=O` (stereo in doubt) [fusaricidin B] here?
**A.** induce resistance reactions

**Q.** And the “inhibition of plant pathogenic fungi” value [3]?
**A.** inhibit plant pathogenic fungi

**Q.** What about the “inhibition of growth of Fusarium oxysporum” value (Fusarium oxysporum) of the same compound?
**A.** inhibit growth

**Q.** For `CC1OC(=O)[C@@H](C)NC(=O)[C@@H](CCC(N)=O)NC(=O)[C@@H]([C@H](C)O)NC(=O)C(Cc2ccc(O)cc2)NC(=O)[C@@H](C(C)C)NC(=O)[C@H]1NC(=O)CC(O)CCCCCCCCCCCCN=C(N)N` (stereo partly drawn) [fusaricidin D] ({Pentadecanoyl(3ξ-OH,15-Gua)}-[Thr(3ξ)][dV][ξY][dT][dQ][dA]; ester 1-C), which “inhibition of plant pathogenic fungi” value [3] is on record?
**A.** inhibit plant pathogenic fungi

**Q.** For `CC1OC(=O)[C@@H](C)NC(=O)[C@@H](CC(N)=O)NC(=O)[C@@H]([C@H](C)O)NC(=O)C(Cc2ccc(O)cc2)NC(=O)[C@@H](C(C)C)NC(=O)[C@H]1NC(=O)CC(O)CCCCCCCCCCCCN=C(N)N` (stereo partly drawn) [fusaricidin C] ({Pentadecanoyl(3ξ-OH,15-Gua)}-[Thr(3ξ)][dV][ξY][dT][dN][dA]; ester 1-C), which “inhibition of plant pathogenic fungi” value [3] is on record?
**A.** inhibit plant pathogenic fungi

**Q.** With “2-(3,4-dimethyl-1H-pyrazol-1-yl)succinic acid (DMPSA1) and/or 2-(4,5-dimethyl-1H-pyrazol-1-yl)succinic acid (DMPSA2)” as the compound, how does the “relative Growth increase [% of control]” value [4] read?
**A.** 104 % of control

**Q.** And the “Biomass increase [% of fertilized control]” value [5]?
**A.** 83 % of fertilized control

**Q.** And the “net Biomass increase” value [5]?
**A.** -2.47 g

**Q.** And the N2O emission ppb (N2O emissions from soils; with AS liquid (ammonium sulfate, 219000 g/ha NH4-N))?
**A.** 38 ppb

**Q.** And the “N2O emission ppb net emission” value (N2O emissions from soils; with AS liquid)?
**A.** 38 ppb

**Q.** And the “% inhibition (N2O emission)” value (N2O emissions from soils; with AS liquid, relative to soybean untreated + AS liquid)?
**A.** 19%
